Read-outs that look alike come from different tables or passages of the source.
Tests used:
[1] = molecular target: HPV18 E6 PBM (Human papillomavirus type 18) (UniProt P06463); details: cited from earlier work
p38γ PBM (Homo sapiens) = p38γ PBM (Homo sapiens) (UniProt P53778); details: cited from earlier work
[2] = molecular target: HBc PBM (Hepatitis B virus) (UniProt P03149); details: cited from earlier work
[3] = molecular target: HPV16 E6 PBM (Human papillomavirus type 16) (UniProt P03126); details: cited from earlier work
Chain of HPV16 E6 PBM (Human papillomavirus type 16) (P03126 whole entry, looked up, the tested form may be a part): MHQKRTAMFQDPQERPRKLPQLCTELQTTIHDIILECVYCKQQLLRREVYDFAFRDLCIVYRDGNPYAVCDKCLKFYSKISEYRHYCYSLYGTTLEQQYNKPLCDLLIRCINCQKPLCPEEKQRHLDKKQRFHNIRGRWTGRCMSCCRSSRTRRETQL

[4] = molecular target: biotinylated peptide PBM-p38γ (12-mer, holdup bait); test: holdup assay; biotinylated PBM peptide on resin in 96-well plates; bacterial extracts with overexpressed MBP-PDZ domains incubated, filtered, flowthrough read by microfluidic capillary electrophoresis; binding intensity (BI), threshold 0.2
PTPN3-Bidomain = molecular target: T1, PTPN3-Bidomain (Homo sapiens, UniProt P26045); test: pNPP hydrolysis by PTPN3-Bidomain pre-incubated with PBM peptide; assay type: biochemical; details: Bidomain 75 nM + large excess of peptide (molar ratio 600:1, 30 min at 25°C), pNPP 19 µM-10 mM, pH 7.5, 25°C, A410, three independent experiments; for Km: substrate-inhibition Michaelis-Menten fit
T1 construct: 6xHis (N); made in house; host or cells: E. coli BL21 Star (DE3)
T1 sequence (P26045 488-913): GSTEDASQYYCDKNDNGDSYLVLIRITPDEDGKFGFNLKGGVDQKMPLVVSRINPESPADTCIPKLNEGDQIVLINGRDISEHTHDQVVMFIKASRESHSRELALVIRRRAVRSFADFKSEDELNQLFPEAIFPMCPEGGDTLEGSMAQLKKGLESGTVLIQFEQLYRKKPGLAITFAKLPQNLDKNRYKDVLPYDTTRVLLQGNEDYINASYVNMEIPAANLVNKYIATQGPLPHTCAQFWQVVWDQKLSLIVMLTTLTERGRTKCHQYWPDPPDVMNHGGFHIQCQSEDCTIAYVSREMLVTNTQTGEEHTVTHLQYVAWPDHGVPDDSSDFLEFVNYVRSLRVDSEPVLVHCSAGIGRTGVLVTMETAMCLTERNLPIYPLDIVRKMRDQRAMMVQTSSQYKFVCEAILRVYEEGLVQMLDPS
Experimental: We performed enzymatic assays on the constructs PTPN3-Bidomain, PTPN3-linker-PTP, PTPN3-shLinker-PTP (short linker, missing 23 residues) and PTPN3-PDZ (Figure 1). In all experiments, the phosphatase activity was assessed using the synthetic nonspecific phosphatase substrate p-nitrophenyl phosphate (pNPP), whose hydrolysis into p-nitrophenol (pNP) can be followed spectrophotometrically at 410 nm. Reactions were performed in 50 mM Tris-HCl, pH 7.5, 1 mM MgCl2, 150 mM NaCl, 0.5 mM.
TCEP The initial reaction rates were measured independently at pH 7.5 and at 25°C. pNPP was assayed for concentrations ranging from 19 μM to 10 mM at an enzyme concentration of 75 nM. […] The experimental data was therefore fitted to a corrected Michaelis-Menten equation to take into consideration this inhibition.
The equation is: Vo = Vmax [S]/(Km + [S] + [S]2/Ki) with Vo the initial rate, Vmax the maximal rate, [S] the substrate concentration and Ki the inhibition constant.
Phosphatase activity was measured by following the hydrolysis of pNPP as previously described ([Maisonneuve et al., 2014]). Absorbances were measured continuously at 410 nm for pNP, using a Thermo Scientific UV spectrometer equilibrated at 25°C. Initial linear reaction rates were calculated during a 60 s reaction. The kcat and KM constants were deduced from fitting the Michaelis-Menten equation with the Prism software. The data are representative of three independent experiments.
A large excess (molar ratio 600:1) of each peptide was incubated with PTPN3-Bidomain for 30’ at 25°C, and the initial rates of the dephosphorylation reaction were measured in the same range of pNPP concentrations.
To assess whether the PBM binding to the PDZ domain releases the catalytic inhibition as observed for PTPN4 ([Maisonneuve et al., 2014]), we added the PBM peptides of the PTPN3 cellular partners, PBM-TACE and PBM-p38γ, and the viral peptides PBM-16E6, PBM-HBc, in large excess ([…]) to PTPN3-Bidomain (Figure 7A; Table 3). For all peptides, a 2-fold decrease in kcat compared to PTPN3-linker-PTP is measured, as in the unbound Bidomain, while the KM remained unaffected (Table 3). Thus, we concluded that the PBM binding has no effect on PTPN3 catalytic activity in our conditions. Accordingly, the specificity constants (kcat/KM) of the complexed Bidomain are in the same range in comparison with the values of PTPN3-Bidomain (Table 3).

PTPN4-PDZ [5] = details: holdup, biotinylated 12-mer peptide; threshold 0.2; ref Genera et al., 2021; cited from earlier work
Text: (§1) We generated a PDZome-binding profile of PBM-p38γ. Mean values of binding intensities (BI) ranked based on affinity are reported in Supplementary Material S1. The highest BI values indicate the PDZ domains recognized with the best affinities by the peptides used as bait. […] In recent work we established the PDZome-binding profile of PBM-HBc with 28 PDZ domains also identified as significant binders ([Genera et al., 2021]). Thus, this similar number of P ...

[6] = system: library of human PDZ domains (266 PDZ domains, 97% of the human PDZome); details: holdup against human PDZome; ref Genera et al., 2021; cited from earlier work
Text: as §1

PTPN3-PDZ [7] = molecular target: T2, PTPN3-PDZ (Homo sapiens, UniProt P26045); details: holdup, biotinylated 12-mer peptide; threshold 0.2; ref Genera et al., 2021; cited from earlier work
T2 construct: GST (N, cleaved yes); made in house; host or cells: E. coli BL21 Star (DE3)
T2 sequence (P26045 510-582 limits assumed): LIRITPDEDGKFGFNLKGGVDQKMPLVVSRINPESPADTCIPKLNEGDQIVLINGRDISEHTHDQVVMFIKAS
Text: as §1

PTPN4-PDZ [8] = test: Holdup assay (binding intensity), PTPN4-PDZ; set-up: species or system human; details: biotinylated 12-mer peptide on resin, MBP-PDZ bacterial extract, capillary electrophoresis, mean BI, significance threshold 0.2
Experimental: (§2) The holdup assay was conducted against the biotinylated peptide PBM-p38γ (Supplementary Material S1) following previously established protocols ([Vincentelli et al., 2015]; [Duhoo et al., 2019]) with some slight modifications. In summary, we utilized a high-throughput technique to measure the affinities and specificities of motifs in a library of human PDZ domains, which involved the use of both robotic and microfluidic methodologies. To achieve this, we expressed 266 PDZ domains fused with the Maltose Binding Protein (MBP) tag, which constituted 97% of the human PDZome. Bacterial extracts containing overexpressed PDZ domains were incubated with PBM peptide-coated resins in 96-well plates, then filtered and evaluated using microfluidic capillary electrophoresis to determine binding intensities (BIs) in the flowthroughs. […]
(§3) Then, we investigated the specificity profiles of the PBMs of the PTPN3-PDZ ligands p38γ and of HBc against the full human PDZome (library that contains all the known human PDZ domains) ([Duhoo et al., 2019]). […] 12-mer peptides encompassing the protein C-terminal PBM sequences linked to a biotinyl group are used as baits to quantify the interaction between PBMs and the library of human PDZ domains expressed in Escherichia coli ([Duhoo et al., 2019]). […]

PTPN3-PDZ [9] = molecular target: T2, PTPN3-PDZ; test: Holdup assay (binding intensity), PTPN3-PDZ; details: biotinylated 12-mer peptide on resin, MBP-PDZ bacterial extract, capillary electrophoresis, mean BI, significance threshold 0.2
Experimental: as §2, §3

[10] = system: library of human PDZ domains (266 PDZ domains, 97% of the human PDZome); test: Holdup assay, PDZome-binding profile; details: holdup against human PDZome; about 10% of the PDZome
Experimental: as §2, §3

[11] = molecular target: PTPN3 PDZ domain (PTPN3-PDZ) (human, UniProt P26045-1 510-582, Limits taken from the PDB 6HKS/8OEP/8CQY entity (offset 483, N-terminal GAMGS tag remnant left out); the end at 597 agrees with the printed linker start at 598. 15N-labelled for NMR.); test: NMR titration; 1H,15N HSQC chemical shift perturbations of 15N-labelled PTPN3-PDZ (117 μM); PBM-TACE added stepwise, PDZ:peptide 1:0 to 1:8.5, 11 points; 15°C; 50 mM Tris/HCl pH 7.5, 150 mM NaCl, 0.5 mM TCEP, 5% D2O; 1:1 model, 14 peaks; details: both partners purified

Chain of HPV18 E6 PBM (Human papillomavirus type 18) (P06463 whole entry, looked up): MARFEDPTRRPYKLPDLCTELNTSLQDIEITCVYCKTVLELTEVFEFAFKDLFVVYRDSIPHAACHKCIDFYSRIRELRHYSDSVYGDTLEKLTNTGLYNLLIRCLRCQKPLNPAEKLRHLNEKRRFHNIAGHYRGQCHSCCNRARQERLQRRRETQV

Question: What does the source list for PTPN3 PDZ (from UniProt P26045)?
Answer: Kd [1]: 37 µM; Kd (p38γ PBM (Homo sapiens)): 26 µM; Kd [2]: 29 µM; Kd [3]: 53 µM

Question: With “PTPN3-PDZ of the holdup PDZome library (MBP fusion) (from UniProt P26045-1 510-582) (domain or fragment)” as the molecule, how does the binding intensity (BI) [4] read?
Answer: 0.52

Question: Which Km (PTPN3-Bidomain) does the source give for RRRRSQS R E S Q C [PBM-HBc] here?
Answer: 1300 ± 100 µM

Question: What about the “k cat of pNPP hydrolysis” value (PTPN3-Bidomain) of the same molecule?
Answer: 1.6 ± 0.1 s^-1

Question: And the “binding intensity (BI)” value (PTPN4-PDZ [5])?
Answer: 0.58

Question: What about the “number of PDZ domains identified as significant binders” value [6] of the same molecule?
Answer: 28 PDZ domains

Question: And the “binding intensity (BI)” value (PTPN3-PDZ [7])?
Answer: 0.45

Question: What does the source list for RSSRTR R E T Q L [PBM-16E6]?
Answer: Km (PTPN3-Bidomain): 800 ± 100 µM; k cat of pNPP hydrolysis (PTPN3-Bidomain): 1.5 ± 0.1 s^-1

Question: With WARVS K E T P L [PBM-p38γ] as the molecule, how does the “binding intensity (BI)” value (PTPN4-PDZ [8]) read?
Answer: 0.60

Question: And the Km (PTPN3-Bidomain)?
Answer: 1200 ± 300 µM

Question: What about the “k cat of pNPP hydrolysis” value (PTPN3-Bidomain) of the same molecule?
Answer: 1.7 ± 0.2 s^-1

Question: And the “binding intensity (BI)” value (PTPN3-PDZ [9])?
Answer: 0.52

Question: And the “number of PDZ domains with significant binding (BI greater than 0.2)” value [10]?
Answer: 28 PDZ domains

B1: PBM-TACE peptide (last C-terminal 12 residues of TACE) (peptide)
peptide: RQNRVDSKETEC
notes: last C-terminal 12 residues of TACE (tumor necrosis factor alpha-convertase, ADAM17), encompassing the PBM; also called PBM of the tumor necrosis factor-alpha converting enzyme; source: synthetic peptide (solid phase, Fmoc; Proteogenix)
Question: Which Kd [11] does the source give for B1 here?
Answer: 30 µM

B2: PTPN4-PDZ of the holdup PDZome library (MBP fusion) (domain or fragment)
chain: LIRMKPDENGRFGFNVKGGYDQKMPVIVSRVAPGTPADLCVPRLNEGDQVVLINGRDIAEHTHDQVVLFIKAS
Question: Which binding intensity (BI) [4] does the source give for B2 here?
Answer: 0.6

From article PMC10185773, “Interactions of the protein tyrosine phosphatase PTPN3 with viral and cellular partners through its PDZ domain: insights into structural determinants and phosphatase activity” (Frontiers in Molecular Biosciences, 2023)
